Data taken from the supplement of paper PMC10307832.

Key:
Assay in all cases: relative viability (nuclei count vs DMSO), 5 days (fraction); higher = more cells survive
A-427 = test system: A-427
Method in brief: (§1)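 Values are medians from duplicate plates. Each reflects relative viability, defined as the nuclei count of treated wells over that of vehicle wells. Lung cancer cell lines in 1536-well plates were pin-tool dosed one day after seeding with one drug alone or with a fixed anchor-drug dose plus five library-drug doses (not always all listed) in √10 steps, then fixed, stained and imaged at 4× after 5 days.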

A549 = test system: A549
Method in brief: as §1

CAL-12T = test system: CAL-12T
Method in brief: as §1

Calu-6 = test system: Calu-6
Method in brief: as §1

EBC-1 = test system: EBC-1
Method in brief: as §1

IA-LM = test system: IA-LM
Method in brief: as §1

LK-2 = test system: LK-2
Method in brief: as §1

NCI-H1299 = test system: NCI-H1299
Method in brief: as §1

NCI-H1650 = test system: NCI-H1650
Method in brief: as §1

NCI-H1703 = test system: NCI-H1703
Method in brief: as §1

NCI-H1734 = test system: NCI-H1734
Method in brief: as §1

NCI-H2009 = test system: NCI-H2009
Method in brief: as §1

UMC-11 = test system: UMC-11
Method in brief: as §1

For O=c1cc(N2CCOCC2)oc2c(-c3cccc4c3sc3ccccc34)cccc12 + C[C@@H](Oc1cc(-c2cnn(C3CCNCC3)c2)cnc1N)c1c(Cl)ccc(F)c1Cl [Crizotinib] (partner 1 µM), the relative viability (A-427; first compound 0.01 µM) was 0.983, the relative viability (A-427; first compound 0.03162 µM) was 0.851 and the relative viability (A-427; first compound 0.1 µM) was 0.807. It also gave a relative viability (A-427; first compound 0.3162 µM) of 0.787, a relative viability (A-427; first compound 1 µM) of 0.925 and a relative viability (A549; first compound 0.01 µM) of 0.771. For the same compound, the relative viability (A549; first compound 0.03162 µM) was 0.769, the relative viability (A549; first compound 0.1 µM) was 0.746 and the relative viability (A549; first compound 0.3162 µM) was 0.828. It also gave a relative viability (A549; first compound 1 µM) of 0.659, a relative viability (CAL-12T; first compound 0.01 µM) of 0.58 and a relative viability (CAL-12T; first compound 0.03162 µM) of 0.657. The relative viability (CAL-12T; first compound 0.1 µM) was 0.767, the relative viability (CAL-12T; first compound 0.3162 µM) was 0.591 and the relative viability (CAL-12T; first compound 1 µM) was 0.775. It also gave a relative viability (Calu-6; first compound 0.01 µM) of 0.858, a relative viability (Calu-6; first compound 0.03162 µM) of 0.857 and a relative viability (Calu-6; first compound 0.1 µM) of 0.793. The relative viability (Calu-6; first compound 0.3162 µM) was 0.759, the relative viability (Calu-6; first compound 1 µM) was 0.777 and the relative viability (EBC-1; first compound 0.01 µM) was 0.208. The relative viability (EBC-1; first compound 0.03162 µM) was 0.227, the relative viability (EBC-1; first compound 0.1 µM) was 0.207 and the relative viability (EBC-1; first compound 0.3162 µM) was 0.221. The relative viability (EBC-1; first compound 1 µM) was 0.204, the relative viability (IA-LM; first compound 0.01 µM) was 0.965 and the relative viability (IA-LM; first compound 0.03162 µM) was 0.694. The relative viability (IA-LM; first compound 0.1 µM) was 0.683, the relative viability (IA-LM; first compound 0.3162 µM) was 0.732 and the relative viability (IA-LM; first compound 1 µM) was 0.621. It also gave a relative viability (LK-2; first compound 0.01 µM) of 0.227, a relative viability (LK-2; first compound 0.03162 µM) of 0.258 and a relative viability (LK-2; first compound 0.1 µM) of 0.219. The relative viability (LK-2; first compound 0.3162 µM) was 0.193, the relative viability (LK-2; first compound 1 µM) was 0.243 and the relative viability (NCI-H1299; first compound 0.01 µM) was 0.949. The relative viability (NCI-H1299; first compound 0.03162 µM) was 0.954, the relative viability (NCI-H1299; first compound 0.1 µM) was 0.973 and the relative viability (NCI-H1299; first compound 0.3162 µM) was 0.637. It also gave a relative viability (NCI-H1299; first compound 1 µM) of 0.923, a relative viability (NCI-H1650; first compound 0.03162 µM) of 0.906 and a relative viability (NCI-H1650; first compound 0.1 µM) of 0.872. It also gave a relative viability (NCI-H1650; first compound 0.3162 µM) of 0.826, a relative viability (NCI-H1650; first compound 1 µM) of 0.921 and a relative viability (NCI-H1703; first compound 0.01 µM) of 0.769. The relative viability (NCI-H1703; first compound 0.03162 µM) was 0.604, the relative viability (NCI-H1703; first compound 0.1 µM) was 0.918 and the relative viability (NCI-H1703; first compound 0.3162 µM) was 0.584. For the same compound, the relative viability (NCI-H1703; first compound 1 µM) was 0.591, the relative viability (NCI-H1734; first compound 0.01 µM) was 0.766 and the relative viability (NCI-H1734; first compound 0.03162 µM) was 0.678. For the same compound, the relative viability (NCI-H1734; first compound 0.1 µM) was 0.699, the relative viability (NCI-H1734; first compound 0.3162 µM) was 0.61 and the relative viability (NCI-H1734; first compound 1 µM) was 0.642. The relative viability (NCI-H2009; first compound 0.01 µM) was 1.03, the relative viability (NCI-H2009; first compound 0.03162 µM) was 0.921 and the relative viability (NCI-H2009; first compound 0.1 µM) was 1.02. It also gave a relative viability (NCI-H2009; first compound 0.3162 µM) of 0.995, a relative viability (NCI-H2009; first compound 1 µM) of 0.935 and a relative viability (UMC-11; first compound 0.01 µM) of 0.69. The relative viability (UMC-11; first compound 0.03162 µM) was 0.648, the relative viability (UMC-11; first compound 0.1 µM) was 0.592 and the relative viability (UMC-11; first compound 0.3162 µM) was 0.631. The relative viability (UMC-11; first compound 1 µM) was 0.565.
Compound CCN(CC)CCCCNc1ncc2cc(-c3cc(OC)cc(OC)c3)c(NC(=O)NC(C)(C)C)nc2n1 + CS(=O)(=O)N1CCN(Cc2cc3nc(-c4cccc5[nH]ncc45)nc(N4CCOCC4)c3s2)CC1 [Pictilisib] (partner 1 µM) has a relative viability (A-427; first compound 0.01 µM) of 0.704, a relative viability (A-427; first compound 0.03162 µM) of 0.657 and a relative viability (A-427; first compound 0.1 µM) of 0.769. For the same compound, the relative viability (A-427; first compound 0.3162 µM) was 0.671, the relative viability (A-427; first compound 1 µM) was 0.353 and the relative viability (A549; first compound 0.01 µM) was 0.52. It also gave a relative viability (A549; first compound 0.03162 µM) of 0.543, a relative viability (A549; first compound 0.1 µM) of 0.562 and a relative viability (A549; first compound 0.3162 µM) of 0.621. It also gave a relative viability (A549; first compound 1 µM) of 0.41, a relative viability (CAL-12T; first compound 0.03162 µM) of 0.322 and a relative viability (CAL-12T; first compound 0.1 µM) of 0.386. For the same compound, the relative viability (CAL-12T; first compound 0.3162 µM) was 0.6, the relative viability (CAL-12T; first compound 1 µM) was 0.397 and the relative viability (Calu-6; first compound 0.01 µM) was 1.01. For the same compound, the relative viability (Calu-6; first compound 0.03162 µM) was 0.994, the relative viability (Calu-6; first compound 0.1 µM) was 1.12 and the relative viability (Calu-6; first compound 0.3162 µM) was 1.09. It also gave a relative viability (Calu-6; first compound 1 µM) of 0.87, a relative viability (EBC-1; first compound 0.01 µM) of 0.369 and a relative viability (EBC-1; first compound 0.03162 µM) of 0.32. For the same compound, the relative viability (EBC-1; first compound 0.1 µM) was 0.342, the relative viability (EBC-1; first compound 0.3162 µM) was 0.37 and the relative viability (EBC-1; first compound 1 µM) was 0.293. For the same compound, the relative viability (IA-LM; first compound 0.01 µM) was 0.329, the relative viability (IA-LM; first compound 0.03162 µM) was 0.329 and the relative viability (IA-LM; first compound 0.1 µM) was 0.342. It also gave a relative viability (IA-LM; first compound 0.3162 µM) of 0.333, a relative viability (IA-LM; first compound 1 µM) of 0.265 and a relative viability (LK-2; first compound 0.01 µM) of 0.624. For the same compound, the relative viability (LK-2; first compound 0.03162 µM) was 0.438, the relative viability (LK-2; first compound 0.1 µM) was 0.425 and the relative viability (LK-2; first compound 0.3162 µM) was 0.388. For the same compound, the relative viability (LK-2; first compound 1 µM) was 0.263, the relative viability (NCI-H1299; first compound 0.01 µM) was 0.883 and the relative viability (NCI-H1299; first compound 0.03162 µM) was 0.845. For the same compound, the relative viability (NCI-H1299; first compound 0.1 µM) was 0.851, the relative viability (NCI-H1299; first compound 0.3162 µM) was 0.96 and the relative viability (NCI-H1299; first compound 1 µM) was 0.775. For the same compound, the relative viability (NCI-H1650; first compound 0.01 µM) was 0.542, the relative viability (NCI-H1650; first compound 0.03162 µM) was 0.464 and the relative viability (NCI-H1650; first compound 0.1 µM) was 0.423. The relative viability (NCI-H1650; first compound 0.3162 µM) was 0.477, the relative viability (NCI-H1650; first compound 1 µM) was 0.22 and the relative viability (NCI-H1703; first compound 0.01 µM) was 0.233. The relative viability (NCI-H1703; first compound 0.03162 µM) was 0.222, the relative viability (NCI-H1703; first compound 0.1 µM) was 0.244 and the relative viability (NCI-H1703; first compound 0.3162 µM) was 0.213. For the same compound, the relative viability (NCI-H1703; first compound 1 µM) was 0.252, the relative viability (NCI-H1734; first compound 0.01 µM) was 0.452 and the relative viability (NCI-H1734; first compound 0.03162 µM) was 0.424. For the same compound, the relative viability (NCI-H1734; first compound 0.1 µM) was 0.54, the relative viability (NCI-H1734; first compound 0.3162 µM) was 0.427 and the relative viability (NCI-H1734; first compound 1 µM) was 0.395. It also gave a relative viability (NCI-H2009; first compound 0.01 µM) of 0.727, a relative viability (NCI-H2009; first compound 0.03162 µM) of 0.79 and a relative viability (NCI-H2009; first compound 0.1 µM) of 0.824. It also gave a relative viability (NCI-H2009; first compound 0.3162 µM) of 0.965, a relative viability (NCI-H2009; first compound 1 µM) of 0.815 and a relative viability (UMC-11; first compound 0.01 µM) of 0.85. It also gave a relative viability (UMC-11; first compound 0.03162 µM) of 0.806, a relative viability (UMC-11; first compound 0.1 µM) of 0.987 and a relative viability (UMC-11; first compound 0.3162 µM) of 0.989. The relative viability (UMC-11; first compound 1 µM) was 0.752.
